The source of these data is patent US20230210851A1, “SPIRO-LACTAM COMPOUNDS AND METHODS OF TREATING VIRAL INFECTIONS USING THE SAME” (Aptinyx Inc., priority 2020, published 2023).

The experiment has as its target T1, 3CL Protease, MBP-tagged (SARS-CoV-2) (Severe acute respiratory syndrome coronavirus 2, UniProt P0DTD1).
T1 construct: The assay was performed using 3CL Protease, MBP-tagged (SARS-CoV-2) Assay kit; MBP; purchased BPS Biosciences 79955-2
In words: biochemical. Particulars: for IC50: compound study, 10 point dose response curve; for activity at tested concentrations: tested concentrations 0.002-30 µM.

The mark [1] stands for this setting: 30 µM concentration, approximate values, read-out: inhibition at 30 µM concentration.
[2] abbreviates: COVID-19 3CL Protease inhibitory activity at 30 µM compound, read-out: % Inhibition at 30 µM.
Where [3] appears, read: read-out: % Inhibition at 30 µM, COVID-19 3CL Protease inhibitory activity at 30 µM compound.
The mark [4] stands for this setting: COVID-19 3CL Protease inhibitory activity at 30 µM compound.
[5] abbreviates: COVID-19 3CL Protease inhibitory activity at 30 µM compound, 30 µM.

Read-outs that look alike come from different tables or passages of the source.

On to `O=C(CCl)N1CCN(Cc2ccc(F)cc2)C2(CCNC2=O)C1` (single isomer, unassigned) [ET-108, 9-(2-chloroacetyl)-6-(4-fluorobenzyl)-2,6,9-triazaspiro[4.5]decan-1-one], for which the IC50 (in general, the midpoint of a concentration-inhibition curve) was 6 µM. For the same compound, under setting [1], the inhibition at 30 µM is around 84%. Besides, the inhibition at 30 µM under setting [2] turned out to be 84%. As to `CC(=O)N1CCN(Cc2ccccc2)[C@]2(CCNC2=O)C1` [ES-319], the “activity at tested concentrations” value is “inactive”. For the same compound, the inhibition at 30 µM under setting [3] is 0%.

As to `CC(=O)N1CCN(Cc2ccccc2)[C@@]2(CCNC2=O)C1` [ES-320], the “activity at tested concentrations” value was “inactive”. Besides, the inhibition at 30 µM under setting [3] was determined as 0%. For the compound `O=C(CCl)N1CCN(Cc2ccccc2)[C@@]2(CCNC2=O)C1` [ET-103, 6-benzyl-9-(2-chloroacetyl)-2,6,9-triazaspiro[4.5]decan-1-one], the inhibition at 30 µM under setting [1] was around 44% and the inhibition at 30 µM under setting [2] is 44%. `O=C(CCl)N1CCN(Cc2ccccc2)[C@]2(CCNC2=O)C1` [ET-104, 6-benzyl-9-(2-chloroacetyl)-2,6,9-triazaspiro[4.5]decan-1-one]: the half-maximal inhibitory concentration (IC50) came out at 11.5 µM. Further, under setting [1], the inhibition at 30 µM is around 92%. Further, under setting [2], the inhibition at 30 µM came to 92%. `O=C(CCl)N1CCN(Cc2ccc(F)cc2)C2(CCNC2=O)C1` (stereo not shown) [ET-107, 9-(2-chloroacetyl)-6-(4-fluorobenzyl)-2,6,9-triazaspiro[4.5]decan-1-one]: the inhibition at 30 µM under setting [2] stood at 38%.

With `O=C(CI)N1CCN(Cc2ccccc2)C2(CCNC2=O)C1` (stereo not shown) [ET-109, 6-benzyl-9-(2-iodoacetyl)-2,6,9-triazaspiro[4.5]decan-1-one], under setting [3], the inhibition at 30 µM was found to be 36%. On to `O=C(CI)N1CCN(Cc2ccccc2)C2(CCNC2=O)C1` (stereo not shown) [ET-110, 6-benzyl-9-(2-iodoacetyl)-2,6,9-triazaspiro[4.5]decan-1-one], for which the inhibition at 30 µM (read-out: inhibition at 30 µM concentration, 30 µM concentration, approximate values) was around 47%. For the compound `CC(Cl)C(=O)N1CCN(Cc2ccccc2)C2(CCNC2=O)C1` (stereo not shown) [ET-111, 6-benzyl-9-(2-chloropropanoyl)-2,6,9-triazaspiro[4.5]decan-1-one], the inhibition at 30 µM under setting [3] worked out at 0%. As for `CC(Cl)C(=O)N1CCN(Cc2ccccc2)C2(CCNC2=O)C1` (stereo not shown) [ET-112, 6-benzyl-9-(2-chloropropanoyl)-2,6,9-triazaspiro[4.5]decan-1-one], the % Inhibition (in general, the drop in the measured response relative to a control, in per cent) at 30 µM under setting [4] worked out at 0%. Same read-out and setting: next, `CC(Cl)C(=O)N1CCN(Cc2ccccc2)C2(CCNC2=O)C1` (stereo not shown) [ET-113, 6-benzyl-9-(2-chloropropanoyl)-2,6,9-triazaspiro[4.5]decan-1-one]: 0%; `CC(Cl)C(=O)N1CCN(Cc2ccccc2)C2(CCNC2=O)C1` (stereo not shown) [ET-114, 6-benzyl-9-(2-chloropropanoyl)-2,6,9-triazaspiro[4.5]decan-1-one]: 0%. Consider `CCC(CC)OC(=O)C(C)NP(=O)(OCC(=O)N1CCN(Cc2ccccc2)C2(CCNC2=O)C1)Oc1ccccc1` (stereo not shown) [ET-115, Pentan-3-yl ((2-(6-benzyl-1-oxo-2,6,9-triazaspiro[4.5]decan-9-yl)-2-oxoethoxy)(phenoxy)phosphoryl)alaninate], for which, under setting [5], the “% Inhibition at 30 µM” value turned out to be 31%. On the same count and under the same terms, in the case of `CCC(CC)OC(=O)C(C)NP(=O)(OCC(=O)N1CCN(Cc2ccccc2)C2(CCNC2=O)C1)Oc1ccccc1` (stereo not shown) [ET-116, Pentan-3-yl ((2-(6-benzyl-1-oxo-2,6,9-triazaspiro[4.5]decan-9-yl)-2-oxoethoxy)(phenoxy)phosphoryl)alaninate] it was 28%; in that of `CCC(CC)OC(=O)C(C)NP(=O)(OCC(=O)N1CCN(Cc2ccccc2)C2(CCNC2=O)C1)Oc1ccccc1` (stereo not shown) [ET-117, Pentan-3-yl ((2-(6-benzyl-1-oxo-2,6,9-triazaspiro[4.5]decan-9-yl)-2-oxoethoxy)(phenoxy)phosphoryl)alaninate], 15%; in that of `CCC(CC)OC(=O)C(C)NP(=O)(OCC(=O)N1CCN(Cc2ccccc2)C2(CCNC2=O)C1)Oc1ccccc1` (stereo not shown) [ET-118, Pentan-3-yl ((2-(6-benzyl-1-oxo-2,6,9-triazaspiro[4.5]decan-9-yl)-2-oxoethoxy)(phenoxy)phosphoryl)alaninate], 34%. Take `CCC(CC)OC(=O)[C@H](C)NP(=O)(OCC(=O)N1CCN(Cc2ccccc2)C2(CCNC2=O)C1)Oc1ccccc1` (stereo partly shown) [ET-119, Pentan-3-yl ((2-(6-benzyl-1-oxo-2,6,9-triazaspiro[4.5]decan-9-yl)-2-oxoethoxy)(phenoxy)phosphoryl)alaninate]: under setting [3], the inhibition at 30 µM amounted to 34%.

As for `CCC(CC)OC(=O)[C@H](C)NP(=O)(OCC(=O)N1CCN(Cc2ccccc2)C2(CCNC2=O)C1)Oc1ccccc1` (stereo partly shown) [ET-120, Pentan-3-yl ((2-(6-benzyl-1-oxo-2,6,9-triazaspiro[4.5]decan-9-yl)-2-oxoethoxy)(phenoxy)phosphoryl)alaninate], the “% Inhibition at 30 µM” value under setting [5] turned out to be 30%.
